# Test results taken from patent publication US20230146870A1, “METHOD TO QUANTIFY AFFINITY AND SELECTIVITY OF SMALL MOLECULES FOR PROTEINS IN LIVING CELLS” (Ohio State Innovation Foundation, priority 2021, published 2023).
# Values joined by “and” are separate entries in the source; they are usually repeats but may differ in a detail not shown here. Identical values can stand only once. Like-named read-outs stand apart in the source and are kept apart here.
# Assays:
# [1] = system: cellular microtubules (HeLa cells); test: Pilot screen of NCI Diversity Set VI: inhibition of binding of PB-GABA-Taxol, with dose-response validation
# [2] = system: microtubule network of HeLa cells (mScarlet-α-Tubulin); test: Confocal microscopy of HeLa cells transfected with mScarlet-α-Tubulin; type: cell-based; conditions: 1 h at 37° C.
# Description: (FIG. 28C) Characterization of fluorescent microtubule phenotypes in HeLa cells transiently transfected with mScarlet-a-Tubulin and treated with the microtubule modulators (1 h at 37° C.). […] Scale bars=10 μm.
# Cells were washed with PBS before treatment with PB-GABA-Taxol (100 nM) and (±)-verapamil hydrochloride (100 μM), with or without paclitaxel (10 μM) as a competitor, in phenol red-free DMEM supplemented with 10% FBS. Cells were incubated at 37° C. for 3 h prior to imaging by confocal microscopy. For experiments using HeLa cells transfected with mScarlet-α-tubulin, transient transfection was performed using a Invitrogen Lipofectamine 3000 Transfection kit (Thermo, L3000-075). Transfection used a 1× dose of lipid in OptiMEM (4% FBS) for 18 hours before washing of cells with PBS and treatment with the microtubule modulator for 1 h at 37° C.
# [3] = system: microtubules in living HeLa cells; test: Allosteric modulator assay with PB-GABA-Taxol in living HeLa cells (cellular Kb, α); conditions: PB-GABA-Taxol 1.5 μM, verapamil 100 μM, 3 h, 37° C.
# Source text: In this model, two compounds that engage tubulin at different binding sites influence the binding of each other through cooperativity. […] Smaller cooperativity factors (α) represent stronger effects on binding of the orthosteric probe. For these allosteric modulators, the apparent cellular affinity was defined as Kb, and the mathematical relationship between Kb and α is provided (equation 3).
# The experimental method for allosteric binding assays was identical to the competition binding assays described previously. However, because it is inaccurate to describe an allosteric modulator with a competitive inhibitory constant (Ki), we used an allosteric modulator model (Kb) for data analysis. […] The observed occupancy of the orthosteric ligand is defined as KApp and is determined by the equilibrium dissociation constant of the orthosteric ligand (Kd), the concentration of allosteric ligand, its affinity for the receptor (Kb), and the strength by which the allosteric ligand affects receptor binding to the orthosteric ligand as defined by the cooperativity factor (a).
# [4] = system: T1, microtubules in living HeLa cells; test: Saturation binding of PB-GABA-Taxol in living HeLa cells by flow cytometry
# T1 construct: rows headed: PB-GABA-Taxol molecules/cell at saturation; other: calibration beads, flow cytometry; other: HeLa cell volume 4.5; cellular Kd of PB-GABA-Taxol for microtubules; other: HeLa cells, 4% FBS, 37° C., verapamil 100 μM, 3 h; other: 10% FBS vs
# Description: To quantify the affinity of PB-GABA-Taxol for microtubules in living cells (cellular Kd), we developed the saturation binding method shown in FIG. 3. In this assay the cellular Kd was measured by varying the concentration of the fluorescent probe added to cells at equilibrium as established by kinetic assays of probe uptake. Total binding of this probe to specific and non-specific sites in cells in the presence of the efflux inhibitor verapamil was determined by flow cytometry. Non-specific binding was quantified separately by addition of excess paclitaxel with the probe under the same conditions. Subtraction of the linear non-specific binding contribution from the total binding curve was used analyze specific binding of the probe to tubulin of microtubules. […]
# OptiMEM medium containing 4% FBS was prepared as 2× stock solutions of different concentrations of PB-GABA-Taxol by serial dilution (final [DMSO]=1.2%). […] The percentage of non-specific binding was determined as non-specific binding divided by total binding. The signal window (SW) was calculated as previously described^2: SW=[(mean top (maximum) signal−mean bottom (minimum) signal)−(3)*(SD top signal+SD bottom signal)]/(SD top signal), where SD=standard deviation.
# HeLa cells [5] = test: Cellular viability of trypsinized HeLa cells under binding assay conditions; type: cell-based; conditions: 180 min
# Description: Samples contained PB-GABA-Taxol (1.5 μM) unless otherwise noted. Viability was analyzed by flow cytometry at the time points shown. Dead cells were identified by changes in light scattering and staining with propidium iodide (3 μM). Changes in viability were less than 10% at 180 min under the conditions used for saturation binding and competitive binding assays, even in the presence of 100 μM paclitaxel.
# For saturation binding assays, HeLa cells were incubated with PB-GABA-Taxol at 37° C. for 180 min in the presence of verapamil (100 μM).
# [6] = target: crosslinked / purified microtubules; conditions: previously reported; read-out: biochemical Kd for microtubules; cited from earlier work
# HeLa cells [7] = test: Time to equilibrium / cellular uptake of PB-GABA-Taxol by flow cytometry; conditions: probe 1.5 μM
# Description: Tubes were incubated in a plate shaker, and at each time point 150 pL of cells were analyzed, in triplicate, in wells containing propidium iodide (3 μM final concentration) to identify live cells by flow cytometry. Median pacific blue fluorescence was plotted as a function of time and half-time measurements were determined using an Exponential One-phase association model (GraphPad Prism 9).
# [8] = Cytotoxicity assay, 48 h, flow cytometry; type: cell-based; conditions: human, HeLa cells
# Description: Trypsinized HeLa cells were resuspended at 40,000 cells/mL in DMEM medium containing 10% FBS and seeded at 8,000 cells/200 μL/well in a treated 96-well plate. The cells were incubated for 16 h at 37° C. The medium was removed and DMEM medium containing 10% FBS treated with compounds (prepared as 3-fold serial dilutions, 0.1% DMSO content) was added. Cells were treated for 48 h at 37° C. before removal of treated medium, washing cells with PBS (100 μL), and addition of Trypsin-EDTA (50 μL) for 10 min at 37° C. Trypsin was neutralized and cells resuspended by addition of 100 μL of complete medium treated with propidium iodide (final concentration 3 μM). Cellular viabilities were analyzed by gating of cells that lack fluorescence of propidium iodide by flow cytometry.
# murine PKCβI-mVenus = target: T2, murine PKCβI-mVenus (Mus musculus, UniProt P68404); test: FPCBA saturation binding, HEK293 cells expressing PKCβI-mVenus (Example 3); conditions: BIM1 2 μM, 2 h at 37° C., 4% FBS
# T2 construct: fused on or other part: mVenus at the C-terminus
# Source text: (§1) To investigate the potential for quantitative analysis of binding to PKCs expressed in cells, we evaluated whether 1-3 could readily achieve equilibrium, which is necessary for measurements of cellular equilibrium dissociation constants (Kd).
# PKCβI-mVenus = target: T3, PKCβI-mVenus (Mus musculus, UniProt P68404); test: Confocal microscopy of translocation of PKCβI-mVenus in HEK293 cells; type: cell-based; conditions: 2 μM, 2 h
# T3 construct: we generated expression vectors for eight full-length mouse isozymes; expressed in transfected cells; host or cells: HEK293 (ATCC CRL-1573), transient transfection with CMV-PKC betaI-mVenus-N1
# Description: FIGS. 36A-36D provide confocal and DIC micrographs of living HEK293 cells transiently transfected to express PKCβI-mVenus. […] Scale bars=10 microns.
# This IRES vector was derived from a previously reported^52 variant encoding the somewhat less fluorescent protein Venus.
# Living cells cultured on an 8-well chamber glass slide (Ibidi μ-Slide, 300 μL, 100,000 cells/well) were imaged with an inverted Leica TCS SP8 confocal laser-scanning microscope (63× oil-immersion objective). Fluorescent probes were excited at 405 nm and mVenus was excited at 488 nm. Emitted photons were collected from 425-500 nm and 500-650 nm. For imaging, transiently transfected HEK293 cells in complete medium (10% FBS) were plated on the Ibidi μ-Slide for 16 h to promote adherence. Concentrated stock solutions of fluorescent probes in DMSO were serially diluted 500-fold in serum-free DMEM medium to afford 2× stock solutions (0.2% DMSO). Half of the cell culture medium (150 μL) was carefully removed by pipet and gently replaced with the 2× stock solution of the probe in serum-free medium (final [FBS]˜5%). Cells were treated with probes (2 μM) at 37° C. for 2 h before imaging by microscopy. Laser power and PMT gain settings were identical for all images and controls within a given experiment for accurate comparisons of cellular fluorescence.
# [9] = system: HEK293 cells expressing PKCβI-mVenus; test: Kinetics of uptake of probes in HEK293 cells transiently transfected with PKCβI-mVenus; type: cell-based; conditions: probe 1 μM, room temperature, BIM1 2 μM, 4% FBS
# Description: Cells were treated with probes and analyzed by flow cytometry. […] [BIM1]=2 μM. [FBS]=4%.
# as §1
# The cells were re-suspended in fresh reduced serum media lacking antibiotics (4% FBS) at a cell density of ˜500,000 cells per mL and were added to a 96-well plate (100 μL per well). […] Fluorescent probes were prepared as absorbance-normalized 1 mM DMSO stock solutions and diluted into reduced serum DMEM media lacking antibiotics (4% FBS) to achieve a final concentration of the probe of 1 μM ([…]). [BIM1]=2 μM. After addition of probes, cells were analyzed at room temperature every 5 min as singletons. Living cells with the greatest green fluorescence from expression of mVenus (top 20%, transfected) and the lowest green fluorescence (bottom 20%, non-transfected) were gated to obtain median PB450 values of uptake of the fluorescent probes. For the slower kinetics of uptake of probe 3, cells were analyzed every 20 min in triplicate. These curves were fitted with a one-phase association model (GraphPad Prism 9) to determine t1/2 values.
# [10] = target: PKC 11 (C1B domain, tyrosine at the 22 position); conditions: phosphatidyl serine present, read-out: binding affinity (Kd) for DAG, cited from earlier work
# T3 sequence (P68404 whole entry): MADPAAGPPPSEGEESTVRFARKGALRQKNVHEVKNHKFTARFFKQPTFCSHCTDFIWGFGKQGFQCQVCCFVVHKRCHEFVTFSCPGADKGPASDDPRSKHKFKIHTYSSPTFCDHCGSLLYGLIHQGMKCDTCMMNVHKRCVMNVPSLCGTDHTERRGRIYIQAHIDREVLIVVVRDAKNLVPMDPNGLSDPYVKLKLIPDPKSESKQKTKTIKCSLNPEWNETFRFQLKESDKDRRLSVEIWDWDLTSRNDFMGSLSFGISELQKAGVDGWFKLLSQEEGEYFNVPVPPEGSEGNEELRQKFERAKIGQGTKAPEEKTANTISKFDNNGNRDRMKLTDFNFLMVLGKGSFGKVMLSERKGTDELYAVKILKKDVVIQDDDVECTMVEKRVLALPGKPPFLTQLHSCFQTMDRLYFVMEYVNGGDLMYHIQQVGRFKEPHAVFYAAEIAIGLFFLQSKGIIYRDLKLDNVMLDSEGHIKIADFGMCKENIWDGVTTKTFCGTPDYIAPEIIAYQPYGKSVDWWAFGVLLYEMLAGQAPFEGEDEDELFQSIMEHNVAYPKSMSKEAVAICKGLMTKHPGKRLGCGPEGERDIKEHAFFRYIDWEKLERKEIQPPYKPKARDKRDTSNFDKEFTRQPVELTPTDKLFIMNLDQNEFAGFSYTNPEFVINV
# T2 sequence (P68404 2-621 limits assumed): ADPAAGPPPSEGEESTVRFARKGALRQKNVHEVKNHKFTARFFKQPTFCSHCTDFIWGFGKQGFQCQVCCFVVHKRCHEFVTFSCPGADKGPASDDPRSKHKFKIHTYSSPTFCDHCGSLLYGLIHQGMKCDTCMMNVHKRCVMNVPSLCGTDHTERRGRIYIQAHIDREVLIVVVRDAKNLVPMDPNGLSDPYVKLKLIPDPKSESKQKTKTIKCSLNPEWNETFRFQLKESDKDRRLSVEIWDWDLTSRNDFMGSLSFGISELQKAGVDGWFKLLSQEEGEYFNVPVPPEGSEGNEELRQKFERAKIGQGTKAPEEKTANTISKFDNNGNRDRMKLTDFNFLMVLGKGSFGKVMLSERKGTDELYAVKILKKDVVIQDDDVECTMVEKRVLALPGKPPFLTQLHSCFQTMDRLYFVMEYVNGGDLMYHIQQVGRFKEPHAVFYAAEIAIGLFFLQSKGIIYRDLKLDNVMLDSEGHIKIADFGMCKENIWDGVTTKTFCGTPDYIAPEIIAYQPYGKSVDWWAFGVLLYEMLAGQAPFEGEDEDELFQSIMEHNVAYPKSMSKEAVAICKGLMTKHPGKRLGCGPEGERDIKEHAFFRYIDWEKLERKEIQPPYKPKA
compound,measurement,setting,value
NC(=O)c1cc2c3ccccc3ccn2c1-c1ccccc1 [NSC 93427],inhibition of cellular fluorescence,[1]; 10 μM,nearly complete inhibition
same,IC50,"[1]; HeLa cells, PB-GABA-Taxol",< 1000 nM
same,fluorescent microtubule phenotype,[2],dose-dependent disruption of microtubules
same,cooperativity factor α,[3],0.02
same,Kb,[3]; read-out: cellular Kb (allosteric modulator),485 nM and 483 nM
CC(=O)O[C@H]1C(=O)[C@]2(C)[C@@H](OC(=O)CCCNC(=O)c3cc4cc(F)c(O)c(F)c4oc3=O)C[C@H]3OC[C@@]3(OC(C)=O)[C@H]2[C@H](OC(=O)c2ccccc2)[C@]2(O)C[C@H](OC(=O)[C@H](O)[C@@H](NC(=O)c3ccccc3)c3ccccc3)C(C)=C1C2(C)C [PB-GABA-Taxol],reduction of apparent affinity by ligand depletion in 10% FBS,[4]; 10% FBS vs 4% or 1% FBS,2 fold
same,Kd,"[4]; HeLa cells, 4% FBS, 37° C., verapamil 100 μM, 3 h, read-out: cellular Kd of PB-GABA-Taxol for microtubules",1700 ± 400 nM
same,cells remaining viable,"HeLa cells [5]; 37° C., verapamil 100 μM",> 90%
same,changes in viability,"HeLa cells [5]; binding assay conditions, even with 100 μM paclitaxel",less than 10%
same,Kd,[6],265 nM
same,half-time (t1/2) to equilibration of cellular fluorescence,"HeLa cells [7]; 37° C., verapamil 100 μM",0.55 h
same,half-time (t1/2) to equilibration of cellular fluorescence,HeLa cells [7]; room temperature (23° C.),1.45 h
COc1cc2c(c(OC)c1OC)-c1ccc(OC)c(=O)cc1[C@@H](NC(C)=O)CC2 [colchicine],IC50 at 48 h,"[8]; with verapamil 25 µM, verapamil 25 μM",13 ± 0.4 nM
same,IC50 at 48 h,[8]; without verapamil,20 ± 8 nM
"CCCCCCN(CCCCCCCCCCCCNC(=O)c1cc2ccc(O)cc2oc1=O)C(=O)O[C@@]12[C@H](O)[C@@H](C)[C@@]3(O)[C@@H](C=C(CO)C[C@]4(O)C(=O)C(C)=C[C@@H]34)[C@@H]1C2(C)C [probe 2, (1aR,1bS,4aR,7aS,7bS,8R,9R,9aS)-4a,7b,9-trihydroxy-3-(hydroxymethyl)-1,1,6,8-tetramethyl-5-oxo-1,1a,1b,4,4a,5,7a,7b,8,9-decahydro-9aH-cyclopropa[3,4]benzo[1,2-e]azulen-9a-yl hexyl(12-(7-hydroxy-2-oxo-2H-chromene-3-carboxamido)dodecyl)carbamate]","Cellular Kd for probe, PKCβI-mVenus",murine PKCβI-mVenus,prevented reliable measurements of cellular affinity
same,translocation of PKCβI-mVenus,PKCβI-mVenus,translocated to cellular membranes
same,half-time (t1/2) of cellular uptake in transfected cells,[9],0.233 h
"CCCCCCN(CCCCCCCCCCCCNC(=O)c1cc2ccc(N(CC)CC)cc2oc1=O)C(=O)O[C@@]12[C@H](O)[C@@H](C)[C@@]3(O)[C@@H](C=C(CO)C[C@]4(O)C(=O)C(C)=C[C@@H]34)[C@@H]1C2(C)C [probe 3, (1aR,1bS,4aR,7aS,7bS,8R,9R,9aS)-4a,7b,9-trihydroxy-3-(hydroxymethyl)-1,1,6,8-tetramethyl-5-oxo-1,1a,1b,4,4a,5,7a,7b,8,9-decahydro-9aH-cyclopropa[3,4]benzo[1,2-e]azulen-9a-yl (12-(7-(diethylamino)-2-oxo-2H-chromene-3-carboxamido)dodecyl)(hexyl)carbamate]",translocation of PKCβI-mVenus,PKCβI-mVenus,translocated to cellular membranes
same,half-time (t1/2) of cellular uptake in transfected cells,[9],> 1.67 h
diacylglycerol [DAG],Kd,[10]; tyrosine at the 22 position,780000 nM
same,Kd,[10]; tyrosine changed into tryptophan,24000 nM
